Laboratory results: patent US9789096B2, “Methods and compositions for selective and targeted cancer therapy” (Board of Regents of the University of Texas System, priority 2013, dated 2017)
Read-outs that look alike come from different tables or passages of the source.

Key:
[1] = test system: H2122; assay: Cell viability dose-response, H2122; type: cell-based, human; details: Homo sapiens
Method in brief: (§1)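 Viability read as total ATP (Cell Titer Glo) following 4 days' compound exposure, with IC50 derived from dose-response curves. Duplicate 12-point series, top concentration 50 micromolar with 3-fold steps, on cells seeded at 15% confluence in RPMI-1640, 5% FBS, 2 mM L-glutamine.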

[2] = test system: H1819; assay: Cell viability dose-response, H1819; type: cell-based, human; details: Homo sapiens, NCI-H1819, Tables 3 and 4; read-out: IC50 (uM) vs indicated non-small cell lung cancer cell line H1819
Method in brief: as §1

[3] = test system: HCC44; assay: Cell viability dose-response, HCC44; type: cell-based, human; details: Homo sapiens, HCC44, Tables 3 and 4; read-out: IC50 (uM) vs indicated non-small cell lung cancer cell line HCC44
Method in brief: (§2)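 Steps: seed cells to 15% confluence in RPMI-1640 supplemented with 5% fetal bovine serum and 2 mM glutamine; add compound across a concentration range; incubate 4 days; measure total ATP with CellTiter-Glo. IC50 is derived from the curve.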

[4] = test system: HCC95; assay: Cell viability dose-response, HCC95; type: cell-based; details: Homo sapiens, Tables 3 and 4, read-out: IC50 (uM) vs indicated non-small cell lung cancer cell line HCC95
Description: (§3) FIG. 6A. […] Cell viability is plotted vs. compound concentration. Compound was added to cells plated at 15% confluence in 96-well plates in RPMI-1640 media supplemented with 5% Fetal Bovine Serum and 2 mM L-Glutamine. After 4 days of incubation, ATP levels were measured using Cell Titer Glo (Promega). Data are presented as the average of 2 replicates ±SEM.
(§4) Selectivity may be measured by the half maximal inhibitory concentration (IC50), which, as used herein, is a measure of the effectiveness of a compound in killing cells. This quantitative measure indicates how much of a particular compound is needed to kill a particular cell population by half (e.g., as indicated by the amount of ATP). […] The IC50 can be determined by constructing a dose-response curve. The lower the IC50, the higher the potency, and the greater the difference between IC50 values for different cell lines (e.g., sensitive lines vs. insensitive lines, and sensitive lines vs. normal lines) the greater the selectivity. […]
(§5) With this information, we synthesized and tested a series of small molecules derived in conception from the oxalamide and chromone scaffold including N-acyl ureas, as shown in Tables 6-8. Each compound was tested in a 12-point dose-response study starting at 50 micromolar and decreasing in 3-fold increments to sub-nanomolar concentrations, in duplicate. Additionally, one or more additional cell line was tested in the same way.

[5] = test system: H460; assay: Cell viability dose-response, H460; type: cell-based; details: Homo sapiens, NCI-H460; Tables 3 and 4; read-out: IC50 (uM) vs indicated non-small cell lung cancer cell line H460
Description: as §3, §4, §5

[6] = test system: H1993; assay: Cell viability dose-response, H1993; type: cell-based; details: Homo sapiens, NCI-H1993; Tables 3 and 4; read-out: IC50 (uM) vs indicated non-small cell lung cancer cell line H1993
Description: as §3, §4, §5

[7] = test system: H2009; assay: Cell viability dose-response, H2009; type: cell-based, human; details: Homo sapiens, NCI-H2009; Tables 3 and 4; read-out: IC50 (uM) vs indicated non-small cell lung cancer cell line H2009
Method in brief: as §2

[8] = test system: HCC4017; assay: Cell viability dose-response, HCC4017; type: cell-based, human; details: Homo sapiens, HCC4017, Tables 3 and 4; read-out: IC50 (uM) vs indicated non-small cell lung cancer cell line HCC4017
Description: as §3, §4, §5

[9] = test system: H1155; assay: Cell viability dose-response, H1155; type: cell-based; details: Homo sapiens, NCI-H1155; Tables 3 and 4; read-out: IC50 (uM) vs indicated non-small cell lung cancer cell line H1155
Description: as §3, §4, §5

[10] = test system: HCC366; assay: Cell viability dose-response, HCC366; type: cell-based; details: Homo sapiens, Tables 3 and 4, read-out: IC50 (uM) vs indicated non-small cell lung cancer cell line HCC366
Description: as §3, §4, §5

[11] = test system: HBEC30KT; assay: Cell viability (ATP, Cell Titer Glo, 4 days), HBEC30KT; type: cell-based, human; details: Homo sapiens, Tables 3 and 4; read-out: HBEC30KT IC50
[12] = test system: H1395; assay: Cell viability dose-response, H1395; type: cell-based; details: Homo sapiens, NCI-H1395; Tables 3 and 4; read-out: IC50 (uM) vs indicated non-small cell lung cancer cell line H1395
Description: as §3, §4, §5

[13] = test system: H2073; assay: Cell viability dose-response, H2073; type: cell-based, human; details: Homo sapiens, NCI-H2073, Tables 3 and 4; read-out: IC50 (uM) vs indicated non-small cell lung cancer cell line H2073
Method in brief: as §2

[14] = test system: H2122 cells; assay: Toxicity to H2122 cells with or without CYP4 inhibitor HET0016; type: cell-based, human
[15] = test system: HopS62; assay: Cell viability dose-response, HopS62; type: cell-based; details: Homo sapiens; Table 4; read-out: IC50 (uM) vs indicated non-small cell lung cancer cell line HopS62
Description: as §3
Selectivity may be measured by the half maximal inhibitory concentration (IC50), which, as used herein, is a measure of the effectiveness of a compound in killing cells. This quantitative measure indicates how much of a particular compound is needed to kill a particular cell population by half (e.g., as indicated by the amount of ATP). […] The IC50 can be determined by constructing a dose-response curve. The lower the IC50, the higher the potency, and the greater the difference between IC50 values for different cell lines (e.g., sensitive lines vs. insensitive lines, and sensitive lines vs. normal lines) the greater the selectivity.
as §5, with “Additionally, one or more additional cell line was tested in the same way.” left out

[16] = test system: 12 lung adenocarcinoma cell lines; assay: Proliferation of the panel of 12 lung adenocarcinoma cell lines; type: cell-based, human; details: FIG. 8E
Description: as §3
To discover selective agents, twelve cell lines of diverse genotype were selected for analysis. 108 lung cancer cell lines were initially clustered into six groups based on mRNA expression of genes that underwent frequent copy number variation. Two cell lines were chosen from each group for high throughput chemical screening. All 12 of the chosen cell lines were derived from lung adenocarcinomas, eliminating both lineage and histology as confounders. None of the cell lines chosen for screening harbored EGFR mutations or ALK rearrangements, so that the final set represented a collection of diverse lung adenocarcinoma genotypes for which there are no targeted therapy.
The proliferative impact of each compound in the library was assayed by analyzing total ATP four days after administration of 2.5 μM in a single well. This first pass yielded 15,843 toxins defined as a compound where ATP levels were […] three standard deviations below the mean for at least one cell line. For each of these putative toxins, the average effect on proliferation was retested on each cancer cell line and a non-cancerous immortalized HBEC line (control), yielding a confirmation dataset.
In addition, N-acyl benzothiazoles was also discovered, such as 4-amino-N-(6-methoxybenzo[d]thiazol-2-yl)benzamide (ATB). We compared the proliferation of 12 lung adenocarcinoma cell lines and three HBEC lines after the addition of ATB.
We subsequently synthesized various derivatives that are both selective and potent (Tables 1 and 2). One leading candidate is a benzothiazole, SW202857, that inhibits proliferation in three of 12 adenocarcinoma cell lines at concentrations less than 10 nM.

[17] = NCI-H2122, Tables 3 and 4, read-out: IC50 (uM) vs indicated non-small cell lung cancer cell line H2122
[18] = NCI-H2122, Table 9, competitor, read-out: IC50 to H2122 cells

Compound | IC50 [1, 17] [µM] | IC50 [3] [µM] | IC50 [1, 18] [µM] | toxicity to H2122 cells in the presence of CYP450 inhibitor HET0016 [14] | IC50 [15] [µM] | also measured
COc1ccc(C(=O)c2ccc(NC(=O)c3sc4ccccc4c3Cl)cc2)cc1 [SW202855-1] | 18.3 | 25.4 | – | – | – | IC50 [2]: 32 µM; IC50 [4]: 9.84 µM; IC50 [5]: 28.8 µM; IC50 [6]: 17.8 µM; IC50 [7]: 13.9 µM; IC50 [8]: 15.7 µM; IC50 [9]: 46.1 µM; IC50 [10]: 49 µM; IC50 [11]: 24.3 µM; IC50 [12]: 28.4 µM; IC50 [13]: 36.2 µM
COc1ccc(CCNC(=O)NC(=O)c2ccc(Oc3ccccc3)cc2)cc1 [SW208456] | – | – | 0.0134 | rescued | – | –
O=C(NCCc1ccc(O)cc1)NC(=O)c1ccc(Oc2ccccc2)cc1 [SW208523] | – | – | 0.0197 | toxic to H2122 cells in the presence or absence of the CYP450 inhibitor | – | –
O=C(Nc1nc2ccccc2o1)c1ccc(C(=O)c2ccccc2)cc1 [SW208665-1] | 42.7 | 2.14 | 0.8 | – | 1.93 | –
O=C(Nc1nc2c(s1)CCC2)c1ccc(C(=O)c2ccccc2)cc1 [SW208666-1] | 0.26 | 3.52 | – | – | 0.09 | –
CNC(=O)c1cccc(NC(=O)N2CCC(Oc3ccccc3Cl)CC2)c1 [compound 28c, reference compound] | – | – | – | – | – | toxicity to the same 4 non-small cell lung cancer cell lines [16]: toxic
